Measured values published in ChEMBL document CHEMBL6083214, “Synthesis, biochemical screening and in-silico investigations of arylsulfonamides bearing linear and cyclic tails” (Bioorg Med Chem Lett, 2024).

How the values were obtained:
Carbonic anhydrase 2 = Carbonic anhydrase 2 (Homo sapiens, UniProt P00918)
Description: Inhibition of human carbonic anhydrase II assessed as inhibition constant by stopped-flow carbon dioxide hydrase assay

Carbonic anhydrase 12 = Carbonic anhydrase 12 (Homo sapiens, UniProt O43570)
Description: Inhibition of human carbonic anhydrase XII assessed as inhibition constant by stopped-flow carbon dioxide hydrase assay

Carbonic anhydrase 9 = Carbonic anhydrase 9 (Homo sapiens, UniProt Q16790)
Description: Inhibition of human carbonic anhydrase IX assessed as inhibition constant by stopped-flow carbon dioxide hydrase assay

Carbonic anhydrase 1 = Carbonic anhydrase 1 (Homo sapiens, UniProt P00915)
Chain of Carbonic anhydrase 1 (P00915 whole entry): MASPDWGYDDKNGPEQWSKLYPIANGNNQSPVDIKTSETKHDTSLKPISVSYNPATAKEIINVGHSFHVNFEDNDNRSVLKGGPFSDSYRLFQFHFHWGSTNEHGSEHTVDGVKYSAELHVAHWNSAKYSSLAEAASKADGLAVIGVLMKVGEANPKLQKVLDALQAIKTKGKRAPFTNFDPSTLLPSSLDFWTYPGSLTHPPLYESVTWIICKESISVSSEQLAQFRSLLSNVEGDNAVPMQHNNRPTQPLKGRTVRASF
Description: Inhibition of human carbonic anhydrase I assessed as inhibition constant by stopped-flow carbon dioxide hydrase assay

Chain of Carbonic anhydrase 12 (O43570 whole entry): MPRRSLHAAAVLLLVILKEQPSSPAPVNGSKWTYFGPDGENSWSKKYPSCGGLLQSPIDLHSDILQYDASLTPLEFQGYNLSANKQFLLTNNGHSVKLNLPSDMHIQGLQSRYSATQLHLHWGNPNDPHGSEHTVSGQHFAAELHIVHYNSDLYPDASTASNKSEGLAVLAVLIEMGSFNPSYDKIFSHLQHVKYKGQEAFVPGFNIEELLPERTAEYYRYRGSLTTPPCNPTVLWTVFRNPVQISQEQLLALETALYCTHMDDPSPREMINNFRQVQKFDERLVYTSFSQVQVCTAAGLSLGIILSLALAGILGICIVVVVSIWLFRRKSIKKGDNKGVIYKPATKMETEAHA

## NS(=O)(=O)c1ccc(/N=C/c2ccc(Cl)cc2)cc1
Carbonic anhydrase 2
  Ki: 22.6 nM

## NS(=O)(=O)c1ccc(/N=C/c2ccc([N+](=O)[O-])cc2)cc1
Carbonic anhydrase 2
  Ki: 25.7 nM

## NS(=O)(=O)c1ccc(N2C(=O)CCSC2c2ccc(F)cc2)cc1 (racemic)
Carbonic anhydrase 2
  Ki: 7.8 nM
Carbonic anhydrase 12
  Ki: 9.4 nM
Carbonic anhydrase 9
  Ki: 74.6 nM
Carbonic anhydrase 1
  Ki: 13.6 nM

## N#Cc1ccc(C2SCCC(=O)N2c2ccc(S(N)(=O)=O)cc2)cc1 (racemic)
Carbonic anhydrase 2
  Ki: 8.2 nM
Carbonic anhydrase 12
  Ki: 89.9 nM
Carbonic anhydrase 9
  Ki: 3.7 nM
Carbonic anhydrase 1
  Ki: 8.6 nM

## N#Cc1cccc(C2SCCC(=O)N2c2ccc(S(N)(=O)=O)cc2)c1 (racemic)
Carbonic anhydrase 2
  Ki: 14.6 nM
Carbonic anhydrase 12
  Ki: 61.1 nM
Carbonic anhydrase 9
  Ki: 18.9 nM
Carbonic anhydrase 1
  Ki: 7.2 nM

## NS(=O)(=O)c1ccc(N2C(=O)CCSC2c2ccc([N+](=O)[O-])cc2)cc1 (racemic)
Carbonic anhydrase 2
  Ki: 80.1 nM
Carbonic anhydrase 12
  Ki: 7.1 nM
Carbonic anhydrase 9
  Ki: 54.8 nM
Carbonic anhydrase 1
  Ki: 82.9 nM

## NS(=O)(=O)c1ccc(N2C(=O)CCSC2c2ccc(Cl)cc2)cc1 (racemic)
Carbonic anhydrase 2
  Ki: 9 nM
Carbonic anhydrase 12
  Ki: 8.2 nM
Carbonic anhydrase 9
  Ki: 19.9 nM
Carbonic anhydrase 1
  Ki: 62.4 nM
